Experimental data taken from ChEMBL document CHEMBL1201862, “PubChem BioAssay data set” (2004).
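Where inhibition never reached the appropriate level, the endpoint shown equals the highest concentration tested. Otherwise, values were interpolated linearly from a five-concentration, 48-hour dose response in 96-well plates. At the GI50, growth is halved.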 The source made the active and inactive calls. Rule as the data show it: active = GI50 up to about 1.1 µM and inactive = higher.

Key:
Test in all cases: DTP human tumour cell line panel, 48 h
[1] = test system: T47D
[2] = test system: MOLT-4
[3] = test system: NCI/ADR-RES
[4] = test system: IGROV-1
[5] = test system: SF-268
[6] = test system: M14
[7] = test system: NCI-H23
[8] = test system: TK-10
[9] = test system: UACC-257
[10] = test system: PC-3
[11] = test system: SNB-19
[12] = test system: OVCAR-8
[13] = test system: SR
[14] = test system: NCI-H522
[15] = test system: LOX IMVI
[16] = test system: BT-549
[17] = test system: SK-OV-3
[18] = test system: UO-31
[19] = test system: COLO 205
[20] = test system: NCI-H460
[21] = test system: U-251
[22] = test system: OVCAR-4
[23] = test system: HCT-116
[24] = test system: MDA-N
[25] = test system: OVCAR-5
[26] = test system: HT-29
[27] = test system: Hs-578T
[28] = test system: K562
[29] = test system: RXF 393
[30] = test system: KM12
[31] = test system: SW-620
[32] = test system: HOP-62
[33] = test system: OVCAR-3
[34] = test system: MDA-MB-435
[35] = test system: SN12C
[36] = test system: SF-295
[37] = test system: CCRF-CEM
[38] = test system: A549
[39] = test system: UACC-62
[40] = test system: A498
[41] = test system: 786-0
[42] = test system: MDA-MB-231
[43] = test system: HOP-92
[44] = test system: SNB-75
[45] = test system: EKVX
[46] = test system: SF-539
[47] = test system: DU-145
[48] = test system: CAKI-1
[49] = test system: HCT-15
[50] = test system: HL-60
[51] = test system: RPMI-8226
[52] = test system: SK-MEL-28
[53] = test system: Malme-3M
[54] = test system: MCF7
[55] = test system: NCI-H226
[56] = test system: HCC 2998
[57] = test system: SK-MEL-5
[58] = test system: SK-MEL-2
[59] = test system: ACHN

With `CN1CCN(c2ccc(-n3cc(C(=O)O)c(=O)c4cc(F)c(N5CCN(C)CC5)cc43)nc2)CC1` the GI50 [1] was > 100 µM (inactive), the GI50 [2] was > 100 µM (inactive) and the GI50 [3] was > 100 µM (inactive). For the same compound, the GI50 [4] was > 100 µM (inactive), the GI50 [5] was > 100 µM (inactive) and the GI50 [6] was > 100 µM (inactive). The GI50 [7] was > 100 µM (inactive), the GI50 [8] was > 100 µM (inactive) and the GI50 [9] was > 100 µM (inactive). The GI50 [10] was > 100 µM (inactive), the GI50 [11] was > 100 µM (inactive) and the GI50 [12] was 85.1 µM (inactive). For the same compound, the GI50 [13] was > 100 µM (inactive), the GI50 [14] was 78.5 µM (inactive) and the GI50 [15] was > 100 µM (inactive). The GI50 [16] was 80 µM (inactive), the GI50 [17] was > 100 µM (inactive) and the GI50 [18] was > 100 µM (inactive). The GI50 [19] was 25.4 µM (inactive), the GI50 [20] was > 100 µM (inactive) and the GI50 [21] was > 100 µM (inactive). The GI50 [22] was > 100 µM (inactive), the GI50 [23] was 69.3 µM (inactive) and the GI50 [24] was > 100 µM (inactive). The GI50 [25] was > 100 µM (inactive), the GI50 [26] was 65.5 µM (inactive) and the GI50 [27] was > 100 µM (inactive). For the same compound, the GI50 [28] was 62.8 µM (inactive), the GI50 [29] was > 100 µM (inactive) and the GI50 [30] was 33.6 µM (inactive). The GI50 [31] was 56.2 µM (inactive), the GI50 [32] was > 100 µM (inactive) and the GI50 [33] was > 100 µM (inactive). The GI50 [34] was > 100 µM (inactive), the GI50 [35] was > 100 µM (inactive) and the GI50 [36] was > 100 µM (inactive). The GI50 [37] was > 100 µM (inactive), the GI50 [38] was > 100 µM (inactive) and the GI50 [39] was > 100 µM (inactive). The GI50 [40] was > 100 µM (inactive), the GI50 [41] was 64.7 µM (inactive) and the GI50 [42] was > 100 µM (inactive). For the same compound, the GI50 [43] was > 100 µM (inactive), the GI50 [44] was > 100 µM (inactive) and the GI50 [45] was > 100 µM (inactive). For the same compound, the GI50 [46] was > 100 µM (inactive), the GI50 [47] was > 100 µM (inactive) and the GI50 [48] was > 100 µM (inactive). The GI50 [49] was > 100 µM, the GI50 [50] was > 100 µM (inactive) and the GI50 [51] was > 100 µM (inactive). For the same compound, the GI50 [52] was > 100 µM (inactive), the GI50 [53] was 95.5 µM (inactive) and the GI50 [54] was > 100 µM (inactive). The GI50 [55] was > 100 µM (inactive).

For `C[C@@H](CC(=O)O)OC1OC(COC(=O)C(C)(C)C)C(OC(=O)C(C)(C)C)C(OC(=O)C(C)(C)C)C1OC(=O)C(C)(C)C` (some centres undefined), the GI50 [1] was 45.9 µM (inactive), the GI50 [2] was 38.6 µM (inactive) and the GI50 [3] was > 100 µM (inactive). For the same compound, the GI50 [4] was 72.3 µM (inactive), the GI50 [56] was 35 µM (inactive) and the GI50 [5] was 50.7 µM (inactive). The GI50 [6] was > 100 µM (inactive), the GI50 [7] was 27.2 µM (inactive) and the GI50 [8] was 99.3 µM (inactive). For the same compound, the GI50 [9] was > 100 µM (inactive), the GI50 [10] was 46.9 µM (inactive) and the GI50 [11] was 28.2 µM (inactive). The GI50 [12] was 81.7 µM (inactive), the GI50 [14] was 57 µM (inactive) and the GI50 [15] was 97.3 µM (inactive). For the same compound, the GI50 [16] was 57 µM (inactive), the GI50 [17] was 73.6 µM (inactive) and the GI50 [18] was > 10 µM (inactive). For the same compound, the GI50 [19] was 32.8 µM (inactive), the GI50 [20] was 29 µM (inactive) and the GI50 [57] was 29.6 µM (inactive). The GI50 [21] was 40 µM (inactive), the GI50 [23] was 47.5 µM (inactive) and the GI50 [24] was 69.7 µM (inactive). The GI50 [25] was > 100 µM (inactive), the GI50 [26] was 39 µM (inactive) and the GI50 [27] was 58.7 µM (inactive). For the same compound, the GI50 [28] was 34.4 µM (inactive), the GI50 [29] was 45.3 µM (inactive) and the GI50 [30] was 45.7 µM (inactive). For the same compound, the GI50 [31] was 45.4 µM (inactive), the GI50 [32] was > 100 µM (inactive) and the GI50 [33] was 64.7 µM (inactive). The GI50 [34] was 53.3 µM (inactive), the GI50 [35] was 48.2 µM (inactive) and the GI50 [36] was 50.5 µM (inactive). For the same compound, the GI50 [37] was 26.5 µM (inactive), the GI50 [38] was 45 µM (inactive) and the GI50 [39] was 71.9 µM (inactive). For the same compound, the GI50 [58] was 49 µM (inactive), the GI50 [40] was > 100 µM (inactive) and the GI50 [41] was 66.2 µM (inactive). For the same compound, the GI50 [42] was > 100 µM (inactive), the GI50 [43] was 38.1 µM (inactive) and the GI50 [59] was 22.6 µM (inactive). For the same compound, the GI50 [44] was 72.8 µM (inactive), the GI50 [45] was 93.5 µM (inactive) and the GI50 [46] was 52.8 µM (inactive). The GI50 [47] was 59.6 µM (inactive), the GI50 [48] was 62.2 µM (inactive) and the GI50 [49] was 32.4 µM. The GI50 [50] was 21.9 µM (inactive), the GI50 [51] was 26.4 µM (inactive) and the GI50 [52] was 89.7 µM (inactive). For the same compound, the GI50 [54] was 41.2 µM (inactive) and the GI50 [55] was > 100 µM (inactive).

`COc1ccc(C(F)(F)F)cc1NC(=O)O/N=C(/Cl)C(C)C` was tested, and the GI50 [1] was 20 µM (inactive), the GI50 [2] was 2.05 µM (inactive) and the GI50 [3] was 23.6 µM (inactive). For the same compound, the GI50 [4] was 17.9 µM (inactive), the GI50 [56] was 19.9 µM (inactive) and the GI50 [5] was 23.8 µM (inactive). For the same compound, the GI50 [6] was 16.9 µM (inactive), the GI50 [7] was 19.7 µM (inactive) and the GI50 [8] was 15.1 µM (inactive). For the same compound, the GI50 [9] was 19.7 µM (inactive), the GI50 [10] was 18.8 µM (inactive) and the GI50 [11] was 18.7 µM (inactive). For the same compound, the GI50 [12] was 21.9 µM (inactive), the GI50 [14] was 2.26 µM (inactive) and the GI50 [15] was 5.27 µM (inactive). The GI50 [16] was 20.7 µM (inactive), the GI50 [17] was > 47.5 µM (inactive) and the GI50 [18] was 18.5 µM (inactive). The GI50 [19] was 2.03 µM (inactive), the GI50 [20] was 37.6 µM (inactive) and the GI50 [57] was 10.7 µM (inactive). For the same compound, the GI50 [21] was 26.4 µM (inactive), the GI50 [22] was 19.1 µM (inactive) and the GI50 [23] was 16.4 µM (inactive). For the same compound, the GI50 [24] was 16.3 µM (inactive), the GI50 [25] was 20.6 µM (inactive) and the GI50 [26] was 23.9 µM (inactive). The GI50 [27] was 30.4 µM (inactive), the GI50 [28] was 1.91 µM (inactive) and the GI50 [29] was 19.6 µM (inactive). For the same compound, the GI50 [30] was 26.3 µM (inactive), the GI50 [31] was 3.33 µM (inactive) and the GI50 [32] was 21.6 µM (inactive). For the same compound, the GI50 [33] was 19.3 µM (inactive), the GI50 [34] was 20.8 µM (inactive) and the GI50 [35] was 16.2 µM (inactive). For the same compound, the GI50 [36] was > 47.1 µM (inactive), the GI50 [37] was 2.24 µM (inactive) and the GI50 [38] was 20.8 µM (inactive). The GI50 [39] was 18.5 µM (inactive), the GI50 [58] was 18.8 µM (inactive) and the GI50 [40] was 28.9 µM (inactive). For the same compound, the GI50 [41] was 16.9 µM (inactive), the GI50 [42] was 19.4 µM (inactive) and the GI50 [43] was 7.33 µM (inactive). For the same compound, the GI50 [59] was 10.5 µM (inactive), the GI50 [44] was 16.8 µM (inactive) and the GI50 [45] was 17.7 µM (inactive). The GI50 [46] was 18.3 µM (inactive), the GI50 [47] was 19.2 µM (inactive) and the GI50 [48] was 1.77 µM (inactive). For the same compound, the GI50 [49] was 5.18 µM, the GI50 [50] was 2.76 µM (inactive) and the GI50 [51] was 1.71 µM (inactive). The GI50 [52] was 21.4 µM (inactive), the GI50 [53] was 9.62 µM (inactive) and the GI50 [54] was 21.2 µM (inactive). The GI50 [55] was 17.7 µM (inactive).
